Experimental data published in ChEMBL document CHEMBL5728415, “Heteroaryl-substituted sulfonamide compounds and their use as therapeutic agents” (2021).

Key:
[1] = Sodium Influx Assay (In Vitro Assay): This sodium influx assay employs the use of the cell permeable, sodium sensitive dye ANG2 to quantify sodium ion influx through sodium channels which are maintained in an open state by use of sodium channel modulators. This high throughput sodium influx assay allows for rapid profiling and characterization of sodium channel blockers.In general, Trex HEK293 …
[2] = target: Sodium channel protein type 8 subunit alpha (Homo sapiens, UniProt Q9UQD0); assay: as above
Sodium channel protein type 8 subunit alpha, sequence (Q9UQD0 whole entry): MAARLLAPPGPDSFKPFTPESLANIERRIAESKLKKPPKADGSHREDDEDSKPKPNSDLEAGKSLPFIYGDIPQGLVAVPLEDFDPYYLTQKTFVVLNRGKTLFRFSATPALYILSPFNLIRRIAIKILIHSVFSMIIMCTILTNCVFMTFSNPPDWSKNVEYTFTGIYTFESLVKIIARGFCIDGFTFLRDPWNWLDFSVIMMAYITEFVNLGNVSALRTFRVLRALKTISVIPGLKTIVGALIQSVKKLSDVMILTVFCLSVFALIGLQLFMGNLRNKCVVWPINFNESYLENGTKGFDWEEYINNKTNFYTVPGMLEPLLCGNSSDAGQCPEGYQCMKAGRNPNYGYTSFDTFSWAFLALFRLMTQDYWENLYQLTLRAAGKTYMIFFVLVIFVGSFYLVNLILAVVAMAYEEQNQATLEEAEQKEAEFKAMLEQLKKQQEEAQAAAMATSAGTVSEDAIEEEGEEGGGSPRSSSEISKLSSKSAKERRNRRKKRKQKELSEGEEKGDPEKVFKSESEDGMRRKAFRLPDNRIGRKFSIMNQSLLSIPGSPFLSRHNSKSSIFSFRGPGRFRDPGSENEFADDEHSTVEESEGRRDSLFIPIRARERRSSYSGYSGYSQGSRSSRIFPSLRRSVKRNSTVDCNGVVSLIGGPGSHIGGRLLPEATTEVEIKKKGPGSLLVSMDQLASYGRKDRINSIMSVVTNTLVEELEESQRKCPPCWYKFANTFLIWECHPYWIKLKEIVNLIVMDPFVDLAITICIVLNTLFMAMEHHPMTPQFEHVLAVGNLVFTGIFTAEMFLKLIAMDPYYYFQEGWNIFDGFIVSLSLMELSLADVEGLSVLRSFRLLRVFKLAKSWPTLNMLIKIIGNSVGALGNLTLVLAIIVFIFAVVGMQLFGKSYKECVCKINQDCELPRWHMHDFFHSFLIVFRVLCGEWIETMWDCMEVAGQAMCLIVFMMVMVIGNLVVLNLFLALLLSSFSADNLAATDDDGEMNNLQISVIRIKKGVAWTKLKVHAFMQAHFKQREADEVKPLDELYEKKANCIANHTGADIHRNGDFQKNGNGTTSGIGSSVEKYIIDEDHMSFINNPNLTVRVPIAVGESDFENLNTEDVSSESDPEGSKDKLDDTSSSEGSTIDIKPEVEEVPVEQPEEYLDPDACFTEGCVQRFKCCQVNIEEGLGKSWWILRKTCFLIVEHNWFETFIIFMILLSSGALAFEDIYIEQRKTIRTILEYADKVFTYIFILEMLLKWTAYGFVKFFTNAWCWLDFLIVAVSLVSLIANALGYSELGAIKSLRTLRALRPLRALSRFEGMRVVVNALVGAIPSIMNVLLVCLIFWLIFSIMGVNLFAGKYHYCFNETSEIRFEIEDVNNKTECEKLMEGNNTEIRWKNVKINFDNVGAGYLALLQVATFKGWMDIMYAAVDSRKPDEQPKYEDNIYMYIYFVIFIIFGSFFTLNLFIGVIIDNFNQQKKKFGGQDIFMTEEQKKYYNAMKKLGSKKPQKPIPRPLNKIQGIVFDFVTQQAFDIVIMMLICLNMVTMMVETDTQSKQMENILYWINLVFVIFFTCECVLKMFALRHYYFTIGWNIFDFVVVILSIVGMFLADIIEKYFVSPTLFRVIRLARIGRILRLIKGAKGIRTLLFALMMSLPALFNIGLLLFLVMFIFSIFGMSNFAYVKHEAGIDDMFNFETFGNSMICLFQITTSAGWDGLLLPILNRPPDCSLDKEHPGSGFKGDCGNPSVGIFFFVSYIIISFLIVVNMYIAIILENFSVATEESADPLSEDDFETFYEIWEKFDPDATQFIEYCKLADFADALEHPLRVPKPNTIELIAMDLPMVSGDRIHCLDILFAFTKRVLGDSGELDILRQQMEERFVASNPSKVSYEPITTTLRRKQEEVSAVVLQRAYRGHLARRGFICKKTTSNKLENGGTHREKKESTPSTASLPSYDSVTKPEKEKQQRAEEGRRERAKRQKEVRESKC

SMILES | IC50 [1] [µM] | IC50 [2] [nM]
Cc1nc(NCc2c(F)cccc2CN2CCCC2)ccc1S(=O)(=O)Nc1cscn1 | 6.18 | 
Cc1cc(S(=O)(=O)Nc2cccc(F)n2)ncc1NCc1c(F)cccc1CN1CCCC1 | 28.8 | 
Cc1nc(S(=O)(=O)Nc2cscn2)c(F)cc1NCc1c(F)cccc1CN1C2CCC1CC2 |  | 37
